Here are results for 2 compounds from paper PMC7190983, “A Putative Efflux Transporter of the ABC Family, YbhFSR, in Escherichia coli Functions in Tetracycline Efflux and Na^+(Li^+)/H^+ Transport” (Frontiers in Microbiology, 2020).

For assay [1], the target named is T1, YbhFSR (Escherichia coli, UniProt P0AFP9+P0AFQ2). The experiment in a line: whole-cell ethidium fluorescence efflux, knockout and complemented strains. It counts as cell-based. Details: gene ybhS; native transporter in whole cells; ybhF knockout, acrB ybhF double knockout and ybhF overexpression strains compared; YbhG and TolC probably also take part. As to conditions: 2.5 μM EB preloaded, 25 mM glucose, 50 mM KPi pH 7.0, 5 mM MgSO4, 37 °C.

For assay [2], the target named is T1, YbhFSR. The arrangement: gene ybhS. As to conditions: 100 μg/ml tetracycline, Mg2+ buffer pH 8.0.

For the compound `CC[n+]1c(-c2ccccc2)c2cc(N)ccc2c2ccc(N)cc21` [ethidium bromide], the “whole-cell ethidium fluorescence efflux, knockout and complemented strains” value on YbhFSR [1] is on record as “the ybhF gene knockout reduced the ethidium efflux capacity”.

Regarding `CN(C)[C@@H]1C(=O)C(C(N)=O)=C(O)[C@@]2(O)C(=O)C3=C(O)c4c(O)cccc4[C@@](C)(O)[C@H]3C[C@@H]12` [tetracycline], the “whole-cell tetracycline fluorescence efflux and accumulation, knockout strains” value at YbhFSR [2] is “knockout of ybhF decreased the efflux of tetracycline and increased the intracellular accumulation”.
